Earlier results in patent US12263175B2, “Optimised dosage of diaminophenothiazines in populations” (WisTa Laboratories Ltd., priority 2018, dated 2025).

Legend:
[1] = test system: huntingtin derivative containing a polyglutamine stretch of 102 residues; details: zebrafish; tested at 0, 10 and 100 μM; cited from earlier work
[2] = test system: TDP-43 aggregates in SH-SY5Y cells; details: 0.05 μM MT; cited from earlier work
[3] = phase 2 study, cited from earlier work

## CN(C)c1ccc2nc3ccc(=[N+](C)C)cc-3sc2c1 [MT, methylthioninium]
[1]
  Formation of aggregates of huntingtin derivative (polyglutamine stretch of 102 residues): prevented the formation of such aggregates in zebrafish in a dose-dependent manner
[2]
  Reduction of the number of TDP-43 aggregates: 50%

## CN(C)c1ccc2nc3ccc(N(C)C)cc3[s+]c2c1.[Cl-] [MTC, methylthioninium chloride]
[3]; 218 mg/day
  Efficacy at higher dose: limited efficacy
[3]
  Minimum safe and effective dose: 138 mg/day
